We go through three compounds from ChEMBL document CHEMBL3108764, “Tankyrase inhibitors: potential treatment of hyperproliferative diseases” (ACS Med Chem Lett, 2014).

For assay [1], the target named is T1, Poly [ADP-ribose] polymerase tankyrase-1 (Homo sapiens, UniProt O95271).
T1 sequence (O95271 whole entry): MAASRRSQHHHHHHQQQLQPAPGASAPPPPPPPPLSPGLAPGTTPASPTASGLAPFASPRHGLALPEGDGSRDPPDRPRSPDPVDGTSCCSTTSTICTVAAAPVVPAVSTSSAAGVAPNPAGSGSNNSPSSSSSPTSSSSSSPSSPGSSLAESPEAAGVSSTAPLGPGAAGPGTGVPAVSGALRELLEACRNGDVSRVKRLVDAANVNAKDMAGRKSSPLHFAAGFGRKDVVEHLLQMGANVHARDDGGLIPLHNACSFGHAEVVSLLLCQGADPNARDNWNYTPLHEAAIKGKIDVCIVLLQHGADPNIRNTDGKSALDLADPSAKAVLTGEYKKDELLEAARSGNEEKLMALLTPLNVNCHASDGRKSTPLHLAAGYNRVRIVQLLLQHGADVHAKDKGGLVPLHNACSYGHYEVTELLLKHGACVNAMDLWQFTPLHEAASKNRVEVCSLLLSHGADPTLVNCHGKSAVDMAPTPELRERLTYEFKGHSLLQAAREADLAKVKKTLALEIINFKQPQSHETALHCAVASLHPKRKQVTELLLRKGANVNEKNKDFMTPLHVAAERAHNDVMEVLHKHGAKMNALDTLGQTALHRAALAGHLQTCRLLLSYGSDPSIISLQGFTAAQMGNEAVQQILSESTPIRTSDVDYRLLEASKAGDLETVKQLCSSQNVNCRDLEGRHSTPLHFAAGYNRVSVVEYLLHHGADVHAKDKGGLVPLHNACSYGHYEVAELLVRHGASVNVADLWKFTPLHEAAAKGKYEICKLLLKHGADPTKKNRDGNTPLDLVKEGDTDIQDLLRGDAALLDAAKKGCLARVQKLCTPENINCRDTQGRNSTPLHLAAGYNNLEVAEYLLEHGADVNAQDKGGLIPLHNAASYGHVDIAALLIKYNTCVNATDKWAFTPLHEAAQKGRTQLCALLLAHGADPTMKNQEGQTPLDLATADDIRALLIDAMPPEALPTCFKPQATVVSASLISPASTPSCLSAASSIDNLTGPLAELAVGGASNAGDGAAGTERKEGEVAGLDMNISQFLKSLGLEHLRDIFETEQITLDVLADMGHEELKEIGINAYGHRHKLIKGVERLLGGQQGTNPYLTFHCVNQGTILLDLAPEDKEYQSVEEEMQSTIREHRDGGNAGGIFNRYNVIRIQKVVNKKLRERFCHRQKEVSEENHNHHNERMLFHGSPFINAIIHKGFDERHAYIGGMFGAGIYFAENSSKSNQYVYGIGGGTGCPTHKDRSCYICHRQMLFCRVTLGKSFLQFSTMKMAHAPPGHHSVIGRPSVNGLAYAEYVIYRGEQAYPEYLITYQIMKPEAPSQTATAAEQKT
Put plainly: Inhibition of human TNKS1 incubated for 30 mins prior to substrate addition measured after 2 hrs by HTRF method. (Time-resolved FRET reads energy transfer from a long-lived donor to a nearby acceptor.)

Assay [2] addresses T1, Poly [ADP-ribose] polymerase tankyrase-1. Put plainly: Inhibition of human TNKS1 after 1 to 2 hrs by fluorescence polarization method.

What is called IC50 is the concentration needed to halve the response being measured.

The compound `Cc1cccc2c1c(=O)n(C[C@H]1CC[C@@H](C(=O)O)CC1)c(=O)n2Cc1cccc(C(F)(F)F)c1C#N` had an IC50 in assay [1] of 316 nM. For `Cc1c(F)ccc2c1c(=O)n(C[C@H]1CC[C@H](C(=O)O)CC1)c(=O)n2Cc1cccc(C(F)(F)F)c1C#N`, the IC50 in assay [1] is 50.1 nM; in assay [2] it was 6.31 nM. For `N#Cc1c(Cn2c(=O)n(C[C@H]3CC[C@H](C(=O)O)CC3)c(=O)c3ccccc32)cccc1C(F)(F)F` the same measures were 31.6 nM and 7.94 nM.
